Structures are written as SMILES. pEC50: −log10 of the molar value. Structures can show the parent of a compound that is named as a salt.

The test concerns CuFi-1 cells. Nature of the test: Secretory activity for chloride ions (MQAE fluorescence) in CuFi-1 cells. The conditions noted are these: Homo sapiens, CuFi-1, CuFi-1 cells, zinc final concentration 10 μM. Format: cell-based. The procedure: Measurement of the secretory activity for chloride ions was performed in accordance with a previous report (West and Molloy, 1996). CuFi-1 cells were plated on a 96 well plate in 3×10^4 cells/well and incubated for two nights. After removing the culture medium, 100 μL/well of N-(ethoxycarbonylmethyl)-6-methoxyquinolinium bromide (MQAE) (diluted with culture medium and the concentration adjusted to 5 mM) was added. After the addition of MQAE, the cells were incubated for one night so that the indicator was passively loaded. After the loading, the cells were washed two times with Assay buffer, and 100 μL/well of Assay buffer was added. The secretory capacity for chloride ions was measured using FlexStation 1 (fluorescence wavelength of Ex: 355 nm/Em: 460 nm). In order to measure the basic value, nothing was added for 34 seconds immediately after the start of the measurement. Then, at this point, 100 μL/well of the test compound and zinc (final concentration: 10 μM) diluted with Assay buffer, which is free of chloride ions, was added, and the measurement was continued for 86 seconds (total measurement time: 120 seconds). The secretory capacity for chloride ions was calculated by dividing the average of RFU values in 10 seconds between 110 seconds and 120 seconds after the start of the measurement with the average between 0 second and 34 seconds (the basic value). The secretory activity for chloride ions of the test compound (EC50 value) was calculated by obtaining the secretory capacity for chloride ions at each concentration of the serially diluted test compound, and determining a concentration of the test compound that provides a secretory capacity of 50% from two secretory capacities and concentrations sandwiching 50% of the maximum response of each compound.

As for `Cc1nc(C(=O)O)nc(NCC(C)(C)O)c1Cc1ccc(Cl)cc1Cl` [Example 6, 5-(2,4-Dichlorobenzyl)-4-((2-hydroxy-2-methylpropyl)amino)-6-methylpyrimidine-2-carboxylic acid], the pEC50 (commonly the EC50 on a negative log10 scale, so that one unit is a factor of ten) was 7.30. Next, `CNc1nc(C(=O)O)nc(C)c1Sc1ccccc1` [Example 23]: 7.07. Next, `CSc1nc(C(=O)O)nc(C)c1Cc1ccccc1Cl` [Example 76]: 7.82. Next, `CCNc1nc(C(=O)O)nc(C(C)C)c1Sc1ccccc1Cl` [Example 19]: 7.88; `CCNc1nc(C(=O)O)nc(C2CC2)c1Cc1ccc(Cl)cc1Cl` [Example 10, 4-Cyclopropyl-5-(2,4-dichlorobenzyl)-6-(ethylamino)pyrimidine-2-carboxylic acid]: 8.14.

Compound `CCNc1nc(C(=O)O)nc(C(C)C)c1Cc1ccccc1Cl` [Example 14, 5-(2-Chlorobenzyl)-4-(ethylamino)-6-isopropylpyrimidine-2-carboxylic acid] gave a pEC50 of 8.30. Next, `COc1nc(C(=O)O)nc(C)c1Sc1ccc(Cl)cc1Cl` [Example 36]: 7.09; `Cc1nc(C(=O)O)nc(NC(C)C)c1Sc1ccccc1Cl` [Example 30]: 8.02.

As to `CCNc1nc(C(=O)O)nc(C)c1Sc1ccccc1Cl` [Example 18, 5-((2-Chlorophenyl)thio)-4-(ethylamino)-6-methylpyrimidine-2-carboxylic acid], the pEC50 is 8.34. Next, `CCc1nc(C(=O)O)nc(OC)c1Cc1cccc(Cl)c1Cl` [Example 41]: 7.79; `Cc1nc(C(=O)O)nc(O[C@H]2C[C@H](C#N)C2)c1Cc1ccccc1Cl` [Example 91]: 7.88. Next, `CNc1nc(C(=O)O)nc(C)c1Cc1ccccc1Cl` [Example 87, 5-(2-Chlorobenzyl)-4-methyl-6-(methylamino)pyrimidine-2-carboxylic acid]: 8.09; `Cc1nc(C(=O)O)nc(CCc2cccnc2)c1Cc1ccccc1Cl` [Example 102]: 8.28. Next, `CCc1nc(C(=O)O)nc(OCCCF)c1Cc1ccccc1Cl` [Example 63]: 8.32; `CCNc1nc(C(=O)O)nc(CC)c1Sc1ccc(Cl)cc1Cl` [Example 21]: 7.73; `CCc1nc(C(=O)O)nc(OC)c1Cc1ccccc1F` [Example 43]: 7.18.

As to `CCNc1nc(C(=O)O)nc(C)c1Sc1ccccc1F` [Example 25], the negative-log EC50 (pEC50) was 7.84. Next, `CCCc1nc(C(=O)O)nc(OCC)c1Cc1ccc(Cl)cc1F` [Example 58]: 7.89; `Cc1nc(C(=O)O)nc(C)c1Cc1ccccc1Cl` [Example 103, 5-(2-Chlorobenzyl)-4,6-dimethylpyrimidine-2-carboxylic acid]: 7.68; `CCNc1nc(C(=O)O)nc(COC)c1Cc1ccc(Cl)cc1Cl` [Example 16, 5-(2,4-Dichlorobenzyl)-4-(ethylamino)-6-(methoxymethyl)pyrimidine-2-carboxylic acid]: 7.28. As for `CCNc1nc(C(=O)O)nc(CC)c1Sc1ccccc1Cl` [Example 20], the pEC50 is 8.23.

Turning to `CNc1nc(C(=O)O)nc(C)c1Oc1ccc(Cl)cc1Cl` [Example 17, 5-(2,4-Dichlorophenoxy)-4-methyl-6-(methylamino)pyrimidine-2-carboxylic acid], the pEC50 is 7.80. `CCNc1nc(C(=O)O)nc(C(C)C)c1Cc1ccc(Cl)cc1Cl` [Example 9, 5-(2,4-Dichlorobenzyl)-4-(ethylamino)-6-isopropylpyrimidine-2-carboxylic acid] gave a pEC50 of 8.26. Next, `CCOc1nc(C(=O)O)nc(CC)c1Cc1ccccc1Cl` [Example 62]: 8.31.

With `CCCOc1nc(C(=O)O)nc(CC)c1Cc1ccccc1Cl` [Example 64], the pEC50 is 7.83. Next, `CCc1nc(C(=O)O)nc(OC)c1Cc1ccccc1Cl` [Example 39]: 8.26; `COc1ccc(Cc2c(C)nc(C(=O)O)nc2OC)c(Cl)c1` [Example 67]: 7.80.

`CCSc1nc(C(=O)O)nc(C)c1Cc1ccc(Cl)cc1Cl` [Example 79, 5-(2,4-Dichlorobenzyl)-4-(ethylthio)-6-methylpyrimidine-2-carboxylic acid]: the pEC50 is 8.18.

`CCSc1nc(C(=O)O)nc(C)c1Cc1ccc(C#N)cc1Cl` [Example 81] had a pEC50 of 8.26. Next, `Cc1nc(C(=O)O)nc(C)c1Cc1ccc(Cl)cc1Cl` [Example 104]: 8.00; `Cc1nc(C(=O)O)nc(OC(C)C)c1Cc1ccccc1Cl` [Example 74, 5-(2-Chlorobenzyl)-4-isopropoxy-6-methylpyrimidine-2-carboxylic acid]: 7.48. Compound `CCOc1nc(C(=O)O)nc(C)c1Cc1ccc(OC)cc1Cl` [Example 57] gave a pEC50 of 7.68. Next, `CCNc1nc(C(=O)O)nc(C)c1Nc1ccccc1Cl` [Example 86, 5-((2-Chlorophenyl)amino)-4-(ethylamino)-6-methylpyrimidine-2-carboxylic acid hydrochloride]: 7.88. Take `Cc1ccc(COc2nc(C(=O)O)nc(C)c2Cc2ccccc2Cl)cn1` [Example 96]: the negative-log EC50 (pEC50) was 8.62. Next, `CNc1nc(C(=O)O)nc(C)c1Sc1ccccc1C(C)C` [Example 26]: 7.84; `CSc1nc(C(=O)O)nc(C)c1Cc1ccc(Cl)cc1Cl` [Example 75, 5-(2,4-Dichlorobenzyl)-4-methyl-6-(methylthio)pyrimidine-2-carboxylic acid]: 8.43.

Take `CCc1nc(C(=O)O)nc(SC)c1Sc1ccc(Cl)cc1Cl` [Example 77]: the pEC50 was 7.84. Take `CCOc1nc(C(=O)O)nc(CC)c1Cc1cccc(Cl)c1F` [Example 60]: the pEC50 was 7.92. Regarding `COc1nc(C(=O)O)nc(C(C)C)c1Cc1ccc(Cl)cc1Cl` [Example 71], the pEC50 was 7.52. As to `CCOc1nc(C(=O)O)nc(C)c1Cc1ccc(Cl)cc1Cl` [Example 33], the pEC50 was 7.74.

In turn, `CCCOc1nc(C(=O)O)nc(C)c1Cc1ccccc1Cl` [Example 53] had a pEC50 of 7.80. The compound `CCNc1nc(C(=O)O)nc(CC)c1Cc1ccccc1Cl` [Example 12, 5-(2-Chlorobenzyl)-4-ethyl-6-(ethylamino)pyrimidine-2-carboxylic acid] gave a pEC50 of 8.17. Next, `CCSc1nc(C(=O)O)nc(C)c1Oc1ccc(Cl)cc1Cl` [Example 80]: 7.31; `Cc1nc(C(=O)O)nc(OCc2ccccc2)c1Cc1ccccc1Cl` [Example 90]: 8.19; `CCN(CC)c1nc(C(=O)O)nc(C)c1Cc1ccc(Cl)cc1Cl` [Example 3, 5-(2,4-Dichlorobenzyl)-4-(diethylamino)-6-methylpyrimidine-2-carboxylic acid hydrochloride]: 7.28. Next, `COc1nc(C(=O)O)nc(C)c1Cc1ccc(F)cc1Cl` [Example 69]: 7.57; `CCc1nc(C(=O)O)nc(OC)c1Cc1cccc(F)c1Cl` [Example 44]: 8.03. As to `Cc1nc(C(=O)O)nc(OCc2ccccn2)c1Cc1ccccc1Cl` [Example 95], the pEC50 was 8.48.

In turn, `CCCc1nc(C(=O)O)nc(OC)c1Cc1ccccc1Cl` [Example 45, hydrochloride] had a pEC50 of 7.83. `Cc1nc(C(=O)O)nc(N)c1Cc1ccc(Cl)cc1Cl` [Example 7, 4-Amino-5-(2,4-dichlorobenzyl)-6-methylpyrimidine-2-carboxylic acid trifluoroacetate] gave a pEC50 of 7.38. Next, `Cc1nc(C(=O)O)nc(OCc2cccc(C#N)c2)c1Cc1ccccc1Cl` [Example 89, 5-(2-Chlorobenzyl)-4-((3-cyanobenzyl)oxy)-6-methylpyrimidine-2-carboxylic acid]: 8.29; `CNc1nc(C(=O)O)nc(C)c1Sc1ccccc1C` [Example 27]: 7.85; `CNc1nc(C(=O)O)nc(C(C)C)c1Cc1ccccc1Cl` [Example 13, 5-(2-Chlorobenzyl)-4-isopropyl-6-(methylamino)pyrimidine-2-carboxylic acid]: 8.25. Take `CCc1nc(C(=O)O)nc(OC)c1Cc1ccc(Cl)cc1F` [Example 42]: the pEC50 is 8.12. As to `CCOc1nc(C(=O)O)nc(C)c1Cc1ccccc1Cl` [Example 52, 5-(2-Chlorobenzyl)-4-ethoxy-6-methylpyrimidine-2-carboxylic acid hydrochloride], the pEC50 is 7.80. `CCCNc1nc(C(=O)O)nc(C)c1Cc1ccc(Cl)cc1Cl` [Example 2, 5-(2,4-Dichlorobenzyl)-4-methyl-6-(n-propylamino)pyrimidine-2-carboxylic acid hydrochloride] showed a negative-log EC50 (pEC50) of 7.62.

Compound `CCNc1nc(C(=O)O)nc(CC)c1Cc1ccc(Cl)cc1Cl` [Example 15, 5-(2,4-Dichlorobenzyl)-4-ethyl-6-(ethylamino)pyrimidine-2-carboxylic acid] had a pEC50 of 7.97. The compound `COc1nc(C(=O)O)nc(C)c1Cc1ccc(C(F)(F)F)cc1Cl` [Example 68] gave a negative logarithm of the EC50 (pEC50) of 8.40. As to `Cc1nc(C(=O)O)nc(OCc2cccnc2)c1Cc1ccccc1Cl` [Example 93], the pEC50 was 8.66.

Values taken from patent US11034659B2, “Pyrimidine derivative” (Daiichi Sankyo Company, Limited, priority 2016, dated 2021).
